Patent publication US9187773B2, “Method for improving acid tolerance of Propionibacterium acidipropionici” (Jiangnan University, priority 2012, dated 2015)

Key:
Type in all cases: cell-based, Propionibacterium acidipropionici
[1] = tested on: P. acidipropionici; test: PA production of P. acidipropionici with amino acid addition (fermentation, HPLC analysis); settings: 30° C., 150 h
Experimental: To determine the effects of adding amino acids on PA production of P. acidipropionici, P. acidipropionici was inoculated with sterile seed medium in anaerobic jars. The anaerobic jars were incubated at 30° C. for 60 h. The culture broth was then transferred into anaerobic jars containing fresh culture medium. The PA fermentations with culture medium with or without addition of arginine and aspartic acid. The PA fermentations with culture medium without addition of arginine and aspartic acid were used as control.
The culture medium: 10 g/L yeast extract, 5 g/L tryptone, 1.5 g/L KH2PO4, 2.5 g/L K2HPO4, 25 g/L glycerol, 10 mg/L CoCl2, 30 g/L CaCO3, 5-30 mM arginine and/or 5-30 mM aspartic acid, pH 7.0.
(§1) To determine the effects of adding arginine on PA production of P. acidipropionici, the strains were inoculated with an inoculum size of 1% (v/v) into anaerobic jars containing 100 mL sterile seed medium. And then the seed culture was inoculated with an inoculum size of 10% (v/v) into anaerobic jars (volume: 100 mL) containing 50 mL culture medium into which certain amount of arginine was added. The anaerobic jars were incubated at 30° C. for 150 h.
(§2) Fermentation broth was centrifuged at 8000 rpm for 5 min, and the supernatant liquid was collected for analysis of PA. The supernatant liquid was diluted by 10 times with 3.68 mol/L sulphuric acid and then filtered with 0.22 μm pore size filter. The samples were analyzed by HPLC. As shown in Table 1 and FIG. 2, addition of amino acids increased PA production.
as §1, with “aspartic acid” for “arginine”, “hours.” for “h.”
as §2, with “Table 2” for “Table 1”

[2] = tested on: P. acidipropionici; test: Acid tolerance of P. acidipropionici with amino acid addition (growth in seed medium containing PA); settings: for Acid tolerance: seed medium with 2.5-5 g/L PA, 30° C., 40 h; for increase of the acid concentration that P. acidipropionici can tolerate: with addition of the amino acid, versus 2.5 g/L PA without amino acid
Experimental: The present invention provides a method for improving acid tolerance of P. acidipropionici by adding arginine and/or aspartic acid in the culture.
P. acidipropionici was first inoculated with sterile seed medium in anaerobic jars. The anaerobic jars were incubated at 30° C. for 60 h. To determine the effects of adding amino acids on acid tolerance of P. acidipropionici, the culture broth was transferred into anaerobic jars containing fresh seed medium with 2.5-5 g/L PA, 5-30 mM arginine and/or 5-30 mM aspartic acid added. The strains were then incubated at 30° C. for 40 h.
The P. acidipropionici was bought from China General Microbiological Culture Collection, and the strain code is CGMCC 1.2230.
The seed medium: 10 g/L yeast extract, 5 g/L tryptic soy broth, 1.5 g/L KH2PO4, 2.5 g/L K2HPO4, pH 7.0.
(§3) To determine the effects of adding arginine on acid tolerance of P. acidipropionici, the strains were inoculated with an inoculum size of 1% (v/v) into anaerobic jars containing 100 mL sterile seed medium. The anaerobic jars were incubated at 30° C. for 60 hours. And then, the culture broth was transferred into anaerobic jars containing fresh seed medium with 2.5-5 g/L PA and 0-30 mM arginine by an inoculum size of 1% (v/v) and incubated at 30° C. for 40 hours.
as §3, with “of adding aspartic acid on acid” for “of adding arginine on acid”, “jars containing (volume: 100 mL) 100 mL” for “jars containing 100 mL”, “0-30 mM aspartic acid by an” for “0-30 mM arginine by an”

[3] = tested on: P. acidipropionici; test: PA production of P. acidipropionici with amino acid addition (fermentation, HPLC analysis)
[4] = amino acid concentration 10 mM in culture medium
[5] = amino acid concentration 20 mM in culture medium
[6] = amino acid concentration 30 mM in culture medium

Row | Compound | PA production [1, 4] | PA production [1, 5] | PA production [1, 6] | Acid tolerance ([2]; amino acid concentration 10 mM) | Acid tolerance ([2]; amino acid concentration 20 mM) | Acid tolerance ([2]; amino acid concentration 30 mM) | increase of the acid concentration that P. acidipropionici can tolerate [2] | PA production ([3]; 30 mM added at the logarithmic phase of fermentation) | PA production ([3]; 30 mM added at the stable phase of fermentation) | PA production ([3]; 20 mM added at the logarithmic phase of fermentation) | PA production ([3]; 20 mM added at the stable phase of fermentation)
1 | N=C(N)NCCC[C@H](N)C(=O)O [Arginine, arginine] | 10.66 g/L | 10.60 g/L | 13.99 g/L | 3 g/L | 4 g/L | 4 g/L | 60% | 12.60 g/L | 10.65 g/L |  | 
2 | N[C@@H](CC(=O)O)C(=O)O [Aspartic acid, aspartic acid] | 12.54 g/L | 12.97 g/L | 12.87 g/L | 2.5 g/L | 3 g/L | 3 g/L | 20% |  |  | 12.75 g/L | 10.66 g/L
